Columns and labels:
[1] = system: odor formation in freshly-taken morning saliva; experiment: Inhibition of in vitro odor formation by higher alcohols (saliva in decarboxylase medium); assay type: cell-based; settings: for effect on in vitro odor formation (summary): 10-50 μl of 1% solution
Experimental: A series of test tubes were prepared, each containing 5 ml of decarboxylase medium (0.5% peptone, 0.3% yeast extract, 0.1% dextrose and 0.02% bromocresol purple). […] The tubes were incubated at 37° C. for three days. Following incubation, the odor was determined by a panel of odor judges, using the following semi-quantitative scale 0=no odor 1=very slight odor […] The higher alcohols tested were alkanols of chain length C8, C9, C10, C11, C12, C14, C16 and C18.

E. faecalis = experiment: Agar plate zone of growth inhibition; assay type: cell-based
Experimental: (§1) The higher alcohols were tested for antimicrobial activity against Gram positive bacteria (Streptococcus mutans), Gram negative bacteria (Pseudomonas spp., Escherichia coli, […]) and the yeast Candida albicans. […] Five microliters of the higher alcohol solutions were placed on the surface of a rich (Brain-heart infusion) agar plate immediately after seeding with a mono-specific bacterial or yeast culture. The plates were incubated for 24-48 hours, and, following further microbial proliferation, the diameters of the zones of growth inhibition were measured (results expressed in centimeters).

Pseudomonas aeruginosa = experiment: Agar plate zone of growth inhibition; assay type: cell-based
Experimental: as §1

C. albicans = experiment: Agar plate zone of growth inhibition; assay type: cell-based, Candida albicans
Experimental: as §1

E. coli = experiment: Agar plate zone of growth inhibition; assay type: cell-based, Escherichia coli
Experimental: as §1

S. mutans = experiment: Agar plate zone of growth inhibition; assay type: cell-based, Streptococcus mutans
Experimental: as §1, with “centimeters). In a further set of experiments, the effect of solvent type on the antimicrobial activity of the C9 alcohol was investigated. […] These solutions were tested for antimicrobial activity towards three microorganisms (M. lysodeikticus, S. mutans and Corynebacterium xerosis) using the same assay as described above. The relationship of the concentration of the C9 alcohol to its antimicrobial activity was also investigated. […] These solutions were tested in the assay described above for their ability to inhibit the growth of the bacteria M. lysodeikticus and S. mutans.” for “centimeters).”

M. lysodeikticus = experiment: Agar plate zone of growth inhibition; assay type: cell-based
Experimental: (§2) Five microliters of the higher alcohol solutions were placed on the surface of a rich (Brain-heart infusion) agar plate immediately after seeding with a mono-specific bacterial or yeast culture. The plates were incubated for 24-48 hours, and, following further microbial proliferation, the diameters of the zones of growth inhibition were measured (results expressed in centimeters). In a further set of experiments, the effect of solvent type on the antimicrobial activity of the C9 alcohol was investigated. […] These solutions were tested for antimicrobial activity towards three microorganisms (M. lysodeikticus, S. mutans and Corynebacterium xerosis) using the same assay as described above. The relationship of the concentration of the C9 alcohol to its antimicrobial activity was also investigated. […] These solutions were tested in the assay described above for their ability to inhibit the growth of the bacteria M. lysodeikticus and S. mutans.

C. xerosis = experiment: Agar plate zone of growth inhibition; assay type: cell-based, Corynebacterium xerosis
Experimental: Five microliters of the higher alcohol solutions were placed on the surface of a rich (Brain-heart infusion) agar plate immediately after seeding with a mono-specific bacterial or yeast culture. The plates were incubated for 24-48 hours, and, following further microbial proliferation, the diameters of the zones of growth inhibition were measured (results expressed in centimeters). In a further set of experiments, the effect of solvent type on the antimicrobial activity of the C9 alcohol was investigated. […] These solutions were tested for antimicrobial activity towards three microorganisms (M. lysodeikticus, S. mutans and Corynebacterium xerosis) using the same assay as described above.

[2] = system: bacteria and yeast tested; experiment: Agar plate growth inhibition, summary statements over the test microorganisms; assay type: cell-based; settings: for antimicrobial activity (summary): C. xerosis; for effect on microbial growth (summary): Table VI microorganisms
Experimental: as §2, with “The higher alcohols were tested for antimicrobial activity against Gram positive bacteria (Streptococcus mutans), Gram negative bacteria (Pseudomonas spp., Escherichia coli, […]) and the yeast Candida albicans. […] Five” for “Five”

[3] = 10 μl of 1% solution, scale 0-5
[4] = 20 μl of 1% solution, scale 0-5
[5] = 30 μl of 1% solution, scale 0-5
[6] = 40 μl of 1% solution, scale 0-5
[7] = 50 μl of 1% solution (C8-C12 in 70% ethanol, C14-C18 in 100% ethanol) in 5 ml medium + 200 μl saliva, 3 days 37° C., scale 0 no odor to 5 extremely foul
[8] = 50 μl of 1% solution, scale 0-5
[9] = 5 μl of 0.1% solution in 70% ethanol
[10] = 5 μl of 1% solution (C8-C12 in 70% ethanol, C14-C18 in 100% ethanol)
[11] = 0.3% C9 in 70% ethanol, concentration series
[12] = 0.5% C9 in 70% ethanol, concentration series
[13] = 1% C9 in 70% ethanol, concentration series
[14] = 1% in 70% ethanol, solvent study
[15] = 2% C9 in 70% ethanol, concentration series
[16] = 3% C9 in 70% ethanol, concentration series
[17] = 4% C9 in 70% ethanol, concentration series
[18] = 5% C9 in 70% ethanol, concentration series
[19] = 10% C9 in 70% ethanol, concentration series

CCCCCCCCCO [C9, 1-nonanol]
effect on in vitro odor formation (summary) [1]: inhibition of odor formation | Odor Score (Judge 1) [1, 3]: 4 | Odor Score (Judge 2) [1, 3]: 4 | Odor Score (Judge 1) [1, 4]: 4 | Odor Score (Judge 2) [1, 4]: 4 | Odor Score (Judge 1) [1, 5]: 0 | Odor Score (Judge 2) [1, 5]: 0 | Odor Score (Judge 1) [1, 6]: 0 | Odor Score (Judge 2) [1, 6]: 0 | Odor Score (Judge 1) [1, 7]: 0 | Odor Score (Judge 2) [1, 8]: 0 | diameter of zone of growth inhibition, E. faecalis (E. faecalis; [9]): 0.7 centimeters | diameter of zone of growth inhibition, E. faecalis (E. faecalis; [10]): 0.9 centimeters | diameter of zone of growth inhibition, Pseudomonas aeruginosa (Pseudomonas aeruginosa; 5 μl of 0.05% solution in 70% ethanol): 0.7 centimeters | diameter of zone of growth inhibition, Pseudomonas aeruginosa (Pseudomonas aeruginosa; [9]): 0.7 centimeters | diameter of zone of growth inhibition, Pseudomonas aeruginosa (Pseudomonas aeruginosa; [10]): 0.6 centimeters | diameter of zone of growth inhibition, C. albicans (C. albicans; [9]): 0.8 centimeters | diameter of zone of growth inhibition, C. albicans (C. albicans; [10]): 0.9 centimeters | diameter of zone of growth inhibition, E. coli (E. coli; [9]): 1.0 centimeters | diameter of zone of growth inhibition, E. coli (E. coli; [10]): 1.0 centimeters | diameter of zone of growth inhibition, S. mutans (S. mutans; [11]): 0.8 centimeters | diameter of zone of growth inhibition, S. mutans (S. mutans; [12]): 0.9 centimeters | diameter of zone of growth inhibition, S. mutans (S. mutans; 1% C9 in 2-propanol): 1.3 centimeters | diameter of zone of growth inhibition, S. mutans (S. mutans; [13]): 0.7 centimeters | diameter of zone of growth inhibition, S. mutans (S. mutans; 1% C9 in 100% methanol): 0.9 centimeters | diameter of zone of growth inhibition, S. mutans (S. mutans; [14]): 0.8 centimeters | diameter of zone of growth inhibition, S. mutans (S. mutans; [15]): 0.8 centimeters | diameter of zone of growth inhibition, S. mutans (S. mutans; [16]): 0.9 centimeters | diameter of zone of growth inhibition, S. mutans (S. mutans; [17]): 1.0 centimeters | diameter of zone of growth inhibition, S. mutans (S. mutans; [18]): 0.9 centimeters | diameter of zone of growth inhibition, S. mutans (S. mutans; [9]): 0.9 centimeters | diameter of zone of growth inhibition, S. mutans (S. mutans; [10]): 0.9 centimeters | diameter of zone of growth inhibition, S. mutans (S. mutans; [19]): 1.0 centimeters | diameter of zone of growth inhibition, M. lysodeikticus (M. lysodeikticus; 0.1% C9 in 70% ethanol, concentration series): 0.7 centimeters | diameter of zone of growth inhibition, M. lysodeikticus (M. lysodeikticus; 0.2% C9 in 70% ethanol, concentration series): 0.9 centimeters | diameter of zone of growth inhibition, M. lysodeikticus (M. lysodeikticus; [11]): 0.7 centimeters | diameter of zone of growth inhibition, M. lysodeikticus (M. lysodeikticus; [12]): 0.7 centimeters | diameter of zone of growth inhibition, M. lysodeikticus (M. lysodeikticus; 1% C9 in 2-propanol): 1.3 centimeters | diameter of zone of growth inhibition, M. lysodeikticus (M. lysodeikticus; [13]): 0.7 centimeters | diameter of zone of growth inhibition, M. lysodeikticus (M. lysodeikticus; 1% C9 in 100% methanol): 0.9 centimeters | diameter of zone of growth inhibition, M. lysodeikticus (M. lysodeikticus; [14]): 0.7 centimeters | diameter of zone of growth inhibition, M. lysodeikticus (M. lysodeikticus; [15]): 0.9 centimeters | diameter of zone of growth inhibition, M. lysodeikticus (M. lysodeikticus; [16]): 0.9 centimeters | diameter of zone of growth inhibition, M. lysodeikticus (M. lysodeikticus; [17]): 0.9 centimeters | diameter of zone of growth inhibition, M. lysodeikticus (M. lysodeikticus; [18]): 0.9 centimeters | diameter of zone of growth inhibition, M. lysodeikticus (M. lysodeikticus; [19]): 0.9 centimeters | diameter of zone of growth inhibition, C. xerosis (C. xerosis; 1% C9 in 2-propanol): 1.0 centimeters | diameter of zone of growth inhibition, C. xerosis (C. xerosis; 1% C9 in 100% methanol): 0.4 centimeters | diameter of zone of growth inhibition, C. xerosis (C. xerosis; [14]): 0.9 centimeters | antimicrobial activity (summary) ([2]; 1% C9 dissolved in water, M. lysodeikticus, S. mutans): almost devoid of activity | antimicrobial activity (summary) ([2]; 1% C9 solutions made in the lower alcohols, M. lysodeikticus, S. mutans): highly active | share of the maximal antibacterial effect ([2]; C9 0.1-0.2% in 70% ethanol, M. lysodeikticus, S. mutans): more than 75 % of the maximal effect | effect on microbial growth (summary) [2]: inhibit microbial growth | spectrum of activity ([2]; among the higher alcohols tested): widest spectrum of activity | C9 alcohol concentration giving the greatest antibacterial activity ([2]; in 70% ethanol, range 0-10%, M. lysodeikticus, S. mutans): ≥ 3%

CCCCCCCCCCO [C10, 1-decanol]
effect on in vitro odor formation (summary) [1]: inhibition of odor formation | Odor Score (Judge 1) [1, 3]: 4 | Odor Score (Judge 2) [1, 3]: 4 | Odor Score (Judge 1) [1, 4]: 0 | Odor Score (Judge 2) [1, 4]: 0 | Odor Score (Judge 1) [1, 5]: 0 | Odor Score (Judge 2) [1, 5]: 0 | Odor Score (Judge 1) [1, 6]: 0 | Odor Score (Judge 2) [1, 6]: 0 | Odor Score (Judge 1) [1, 7]: 0 | Odor Score (Judge 2) [1, 8]: 0 | diameter of zone of growth inhibition, E. faecalis (E. faecalis; [9]): 0.9 centimeters | diameter of zone of growth inhibition, Pseudomonas aeruginosa (Pseudomonas aeruginosa; [9]): 0.8 centimeters | diameter of zone of growth inhibition, Pseudomonas aeruginosa (Pseudomonas aeruginosa; [10]): 0.8 centimeters | diameter of zone of growth inhibition, C. albicans (C. albicans; [9]): 0.7 centimeters | diameter of zone of growth inhibition, C. albicans (C. albicans; [10]): 0.8 centimeters | diameter of zone of growth inhibition, E. coli (E. coli; [9]): 0.8 centimeters | diameter of zone of growth inhibition, E. coli (E. coli; [10]): 0.7 centimeters | effect on microbial growth (summary) [2]: inhibit microbial growth

CCCCCCCCCCCO [C11, 1-undecanol]
effect on in vitro odor formation (summary) [1]: inhibition of odor formation | Odor Score (Judge 1) [1, 3]: 5 | Odor Score (Judge 2) [1, 3]: 5 | Odor Score (Judge 1) [1, 4]: 0 | Odor Score (Judge 2) [1, 4]: 0.5 | Odor Score (Judge 1) [1, 5]: 0 | Odor Score (Judge 2) [1, 5]: 0 | Odor Score (Judge 1) [1, 6]: 0 | Odor Score (Judge 2) [1, 6]: 0 | Odor Score (Judge 1) [1, 7]: 0 | Odor Score (Judge 2) [1, 8]: 0 | diameter of zone of growth inhibition, E. faecalis (E. faecalis; [9]): 1.0 centimeters | diameter of zone of growth inhibition, Pseudomonas aeruginosa (Pseudomonas aeruginosa; [9]): 0.4 centimeters | diameter of zone of growth inhibition, Pseudomonas aeruginosa (Pseudomonas aeruginosa; [10]): 0.7 centimeters | diameter of zone of growth inhibition, C. albicans (C. albicans; [9]): 0.7 centimeters | diameter of zone of growth inhibition, C. albicans (C. albicans; [10]): 0.8 centimeters | diameter of zone of growth inhibition, E. coli (E. coli; [9]): 0.7 centimeters | diameter of zone of growth inhibition, E. coli (E. coli; [10]): 0.7 centimeters | effect on microbial growth (summary) [2]: inhibit microbial growth

OCC(O)CO [glycerol, reference compound]
diameter of zone of growth inhibition, C. xerosis (C. xerosis; solvent alone (100%), no C9): 0.2 centimeters

CCCCCCCCCCCCO [C12]
Odor Score (Judge 1) [1, 3]: 5 | Odor Score (Judge 2) [1, 3]: 5 | Odor Score (Judge 1) [1, 4]: 4 | Odor Score (Judge 2) [1, 4]: 4 | Odor Score (Judge 1) [1, 5]: 3 | Odor Score (Judge 2) [1, 5]: 3 | Odor Score (Judge 1) [1, 6]: 2 | Odor Score (Judge 2) [1, 6]: 3 | Odor Score (Judge 1) [1, 7]: 2 | Odor Score (Judge 2) [1, 8]: 3.5 | diameter of zone of growth inhibition, E. faecalis (E. faecalis; [10]): 0.7 centimeters | diameter of zone of growth inhibition, Pseudomonas aeruginosa (Pseudomonas aeruginosa; [9]): + − | diameter of zone of growth inhibition, Pseudomonas aeruginosa (Pseudomonas aeruginosa; [10]): + − | diameter of zone of growth inhibition, C. albicans (C. albicans; [9]): 0.6 centimeters | diameter of zone of growth inhibition, E. coli (E. coli; [9]): 0.6 centimeters | effect on microbial growth (summary) [2]: inhibit microbial growth

CO [methanol, reference compound]
diameter of zone of growth inhibition, C. xerosis (C. xerosis; solvent alone (100%), no C9): 0.7 centimeters

CC(C)O [2-propanol, reference compound]
diameter of zone of growth inhibition, S. mutans (S. mutans; solvent alone (100%), no C9): 0.9 centimeters | diameter of zone of growth inhibition, M. lysodeikticus (M. lysodeikticus; solvent alone (100%), no C9): 1.1 centimeters | diameter of zone of growth inhibition, C. xerosis (C. xerosis; solvent alone (100%), no C9): 0.8 centimeters

Source: patent publication US20030175216A1, “Oral antimicrobial and anti-odor compositions” (Innoscent LTD., priority 2001, published 2003)
